Molecular target: Transient receptor potential cation channel subfamily A member 1 (Homo sapiens, UniProt O75762)
Experiment: Measurement of TRPA1 Antagonist Activity
Method: The test substance was dissolved in dimethyl sulfoxide and serially diluted with an assay buffer containing 0.1% bovine serum albumin (1×HBSS, 20 mM HEPES, pH 7.2) to a 4.8-fold concentration of the evaluation concentration. Allylisothiocyanate, which is a known TRPA1 activator, was dissolved in dimethyl sulfoxide to 100 mM, and further diluted 5-fold (100 μM) of the final concentration, like the test substance.

Chain of Transient receptor potential cation channel subfamily A member 1 (O75762 whole entry): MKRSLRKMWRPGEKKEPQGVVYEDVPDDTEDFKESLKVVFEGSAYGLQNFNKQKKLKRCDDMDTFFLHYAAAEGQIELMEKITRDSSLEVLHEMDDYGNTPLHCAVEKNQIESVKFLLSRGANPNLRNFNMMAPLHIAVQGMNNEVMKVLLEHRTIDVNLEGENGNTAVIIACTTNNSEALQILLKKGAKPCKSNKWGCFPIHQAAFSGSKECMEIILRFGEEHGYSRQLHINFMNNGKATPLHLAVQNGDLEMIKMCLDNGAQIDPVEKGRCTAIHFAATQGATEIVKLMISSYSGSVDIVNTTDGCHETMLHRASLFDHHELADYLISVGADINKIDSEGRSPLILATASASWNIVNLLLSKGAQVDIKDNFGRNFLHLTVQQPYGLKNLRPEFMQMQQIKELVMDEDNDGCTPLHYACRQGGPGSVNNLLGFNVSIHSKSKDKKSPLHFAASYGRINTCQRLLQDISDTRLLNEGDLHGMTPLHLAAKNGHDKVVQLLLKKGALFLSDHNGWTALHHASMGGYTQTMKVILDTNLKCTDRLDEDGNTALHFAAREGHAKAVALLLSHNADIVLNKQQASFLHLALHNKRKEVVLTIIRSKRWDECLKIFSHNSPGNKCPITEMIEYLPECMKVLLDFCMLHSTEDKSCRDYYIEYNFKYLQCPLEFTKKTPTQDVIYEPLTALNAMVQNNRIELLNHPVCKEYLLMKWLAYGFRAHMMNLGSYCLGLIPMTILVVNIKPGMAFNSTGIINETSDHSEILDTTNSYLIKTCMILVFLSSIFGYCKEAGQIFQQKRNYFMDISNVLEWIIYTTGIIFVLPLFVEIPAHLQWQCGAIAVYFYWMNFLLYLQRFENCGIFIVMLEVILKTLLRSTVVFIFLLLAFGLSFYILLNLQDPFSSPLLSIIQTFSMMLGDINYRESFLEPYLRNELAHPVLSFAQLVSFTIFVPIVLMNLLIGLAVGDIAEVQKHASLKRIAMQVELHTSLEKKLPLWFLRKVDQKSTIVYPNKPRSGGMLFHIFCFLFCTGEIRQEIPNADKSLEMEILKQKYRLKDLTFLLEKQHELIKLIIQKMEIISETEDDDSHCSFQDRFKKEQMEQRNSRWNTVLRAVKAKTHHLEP

## O=C(NCc1cccc(OCc2ccc(N3CCOCC3)nc2)c1)[C@@H]1CCCN1S(=O)(=O)c1cc2cc(F)ccc2o1 [US10626112, Example 22]
  IC50: 110 nM

## O=C(NCc1cccc(CSc2ccc(C(F)(F)F)cc2)c1)[C@@H]1CCCN1S(=O)(=O)c1cc2ccccc2o1 [US10626112, Example 299]
  IC50: 24 nM

## O=C(NCc1ccnc(-c2ccc(COCC(F)(F)F)nc2)c1)[C@@H]1CCCN1S(=O)(=O)c1cc2ccccc2o1 [US10626112, Example 331]
  IC50: 170 nM

## O=C(NCc1cc(-c2ccc(C(F)(F)F)cc2)ncn1)[C@@H]1CCCN1S(=O)(=O)c1cc2ccncc2o1 [US10626112, Example 347]
  IC50: 74 nM

## O=C(CN(Cc1ccccc1)S(=O)(=O)c1cc2cc(F)ccc2o1)NCc1cc(-c2ccc(C(F)(F)F)cn2)ccn1 [US10626112, Example 350]
  IC50: 630 nM

## O=C(CN(Cc1ncco1)S(=O)(=O)c1cc2cc(F)ccc2o1)NCc1cc(-c2ccc(C(F)(F)F)cn2)ccn1 [US10626112, Example 351]
  IC50: 990 nM

## O=C(CN(Cc1ccccc1)S(=O)(=O)c1cc2cc(F)ccc2o1)NCc1cc(-c2ccc(C(F)(F)F)cc2)ncn1 [US10626112, Example 352]
  IC50: 410 nM

## O=C(CN(Cc1ncco1)S(=O)(=O)c1cc2cc(F)ccc2o1)NCc1cc(-c2ccc(C(F)(F)F)cc2)ncn1 [US10626112, Example 354]
  IC50: 380 nM

## COCCN(CC(=O)NCc1cc(-c2ccc(C(F)(F)F)cn2)ccn1)S(=O)(=O)c1cc2cc(F)ccc2o1 [US10626112, Example 355]
  IC50: 100 nM

## CC(C)OCCN(CC(=O)NCc1cc(-c2ccc(C(F)(F)F)cn2)ccn1)S(=O)(=O)c1cc2cc(F)ccc2o1 [US10626112, Example 356]
  IC50: 190 nM

## CC(C)OCCN(CC(=O)NCc1cc(-c2ccc(C(F)(F)F)cc2)ncn1)S(=O)(=O)c1cc2cc(F)ccc2o1 [US10626112, Example 358]
  IC50: 110 nM

## O=C(CN(Cc1cnccn1)S(=O)(=O)c1cc2cc(F)ccc2o1)NCc1cc(-c2ccc(C(F)(F)F)cc2)ncn1 [US10626112, Example 361]
  IC50: 470 nM

## CC(C)(C)OC[C@H](NS(=O)(=O)c1cc2cc(F)ccc2o1)C(=O)NCc1cc(-c2ccc(C(F)(F)F)cc2)ncn1 [US10626112, Example 415]
  IC50: 410 nM

## O=C(CN(CC1CCNC1)S(=O)(=O)c1cc2cc(F)ccc2o1)NCc1cc(-c2ccc(C(F)(F)F)cc2)ncn1 (centres undefined) [US10626112, Example 425]
  IC50: 190 nM
